Measurements as given in patent publication US7704995B2 (Exelixis, Inc., priority 2003, dated 2010).

Target: T1, Chk1 (Homo sapiens, UniProt O14757)
T1 construct: purchased Upstate Biotechnology
T1 sequence (O14757 1-476): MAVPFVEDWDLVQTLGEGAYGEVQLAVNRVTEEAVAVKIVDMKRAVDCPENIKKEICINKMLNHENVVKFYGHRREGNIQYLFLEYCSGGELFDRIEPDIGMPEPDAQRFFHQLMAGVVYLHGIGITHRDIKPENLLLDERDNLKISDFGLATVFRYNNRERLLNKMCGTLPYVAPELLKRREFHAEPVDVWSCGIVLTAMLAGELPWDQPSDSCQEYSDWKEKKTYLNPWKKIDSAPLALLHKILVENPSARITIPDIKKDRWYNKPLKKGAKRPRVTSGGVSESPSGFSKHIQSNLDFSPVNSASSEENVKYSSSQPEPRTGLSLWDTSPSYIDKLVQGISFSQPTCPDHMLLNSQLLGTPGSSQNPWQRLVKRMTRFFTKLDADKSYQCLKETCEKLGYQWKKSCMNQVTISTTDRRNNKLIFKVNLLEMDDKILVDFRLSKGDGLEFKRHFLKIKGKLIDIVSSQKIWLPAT
Assay: Chk1 kinase assay: incorporation of γ-33P ATP into immobilized myelin basic protein
Assay type: biochemical
Settings: read-out: Chk1 IC50
In short: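 Plates coated with MBP, then kinase reactions in Hepes pH 7.6 buffer with 10 mM MgCl2 and 1% DMSO were started by adding unlabeled plus γ-33P ATP (10 μM for Chk1 at 10 nM enzyme; 30 μM for Chk2 at 20 nM enzyme). After 1 h at room temperature, plates were washed and counted.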

| Structure (SMILES) | IC50 |
| --- | --- |
| CNC(=O)c1nc(-c2cccc(CNC(=O)Cc3ccc(Cl)cc3)c2)cnc1N [Example 331, 3-amino-6-[3-({[(4-chlorophenyl)acetyl]amino}methyl)phenyl]-N-methylpyrazine-2-carboxamide] | 0.05 to 1 µM |
| CNC(=O)c1nc(-c2cccc(CNC(=O)c3ccc(-c4ccccc4)cc3)c2)cnc1N [Example 332, 3-amino-6-(3-{[(biphenyl-4-ylcarbonyl)amino]methyl}phenyl)-N-methylpyrazine-2-carboxamide] | < 0.05 µM |
| CNC(=O)c1nc(-c2cccc(CNC(=O)c3cc4ccccc4[nH]3)c2)cnc1N [Example 334, N-[(3-{5-amino-6-[(methylamino)carbonyl]pyrazin-2-yl}phenyl)methyl]-1H-indole-2-carboxamide] | 0.05 to 1 µM |
| CNC(=O)c1nc(-c2cccc(C(=O)NCc3cc(F)ccc3F)c2)cnc1N [Example 337, 3-amino-6-[3-({[(2,5-difluorophenyl)methyl]amino}carbonyl)phenyl]-N-methylpyrazine-2-carboxamide] | 0.05 to 1 µM |
| CNC(=O)c1nc(-c2cccc(C(=O)NCc3c(F)cccc3F)c2)cnc1N [Example 338, 3-amino-6-[3-({[(2,6-difluorophenyl)methyl]amino}carbonyl)phenyl]-N-methylpyrazine-2-carboxamide] | 0.05 to 1 µM |
| CNC(=O)c1nc(-c2cccc(C(=O)NCc3cc(F)cc(F)c3)c2)cnc1N [Example 339, 3-amino-6-[3-({[(3,5-difluorophenyl)methyl]amino}carbonyl)phenyl]-N-methylpyrazine-2-carboxamide] | < 0.05 µM |
| CNC(=O)c1nc(-c2cccc(C(=O)NCc3cccc(I)c3)c2)cnc1N [Example 340, 3-amino-6-[3-({[(3-iodophenyl)methyl]amino}carbonyl)phenyl]-N-methylpyrazine-2-carboxamide] | < 0.05 µM |
| CNC(=O)c1nc(-c2cccc(C(=O)NCc3ccccc3N3CCOCC3)c2)cnc1N [Example 341, 3-amino-N-methyl-6-[3-({[(2-morpholin-4-ylphenyl)methyl]amino}carbonyl)phenyl]pyrazine-2-carboxamide] | 0.05 to 1 µM |
| CNC(=O)c1nc(-c2ccc(OC)c(C(=O)NCc3ccccc3)c2)cnc1N [Example 348, 3-amino-N-methyl-6-(4-(methyloxy)-3-{[(phenylmethyl)amino]carbonyl}phenyl)pyrazine-2-carboxamide] | 0.05 to 1 µM |
| CNC(=O)c1nc(-c2cccc(CNC(=O)c3ccc(I)cc3)c2)cnc1N [Example 350, 3-amino-6-[3-({[(4-iodophenyl)carbonyl]amino}methyl)phenyl]-N-methylpyrazine-2-carboxamide] | < 0.05 µM |
| CCCCCc1ccc(C(=O)NCc2cccc(-c3cnc(N)c(C(=O)NC)n3)c2)cc1 [Example 351, 3-amino-N-methyl-6-[3-({[(4-pentylphenyl)carbonyl]amino}methyl)phenyl]pyrazine-2-carboxamide] | 0.05 to 1 µM |
| CNC(=O)c1nc(-c2cccc(CNC(=O)c3ccc4c(c3)OCO4)c2)cnc1N [Example 352, 3-amino-6-(3-{[(1,3-benzodioxol-5-ylcarbonyl)amino]methyl}phenyl)-N-methylpyrazine-2-carboxamide] | 0.05 to 1 µM |
| CNC(=O)c1nc(-c2cccc(C(=O)NCc3ccccc3SC)c2)cnc1N [Example 356, 3-amino-N-methyl-6-{3-[({[2-(methylthio)phenyl]methyl}amino)carbonyl]phenyl}pyrazine-2-carboxamide] | < 0.05 µM |
| CNC(=O)c1nc(-c2cccc(C(=O)N[C@@H]3CCN(C(=O)OC(C)(C)C)C3)c2)cnc1N [Example 357, 1,1-dimethylethyl (3R)-3-{[(3-{5-amino-6-[(methylamino)carbonyl]pyrazin-2-yl}phenyl)carbonyl]amino}pyrrolidine-1-carboxylate] | 1 to 10 µM |
| CNC(=O)c1nc(-c2cccc(C(=O)N[C@@H]3CCNC3)c2)cnc1N [Example 358, 3-amino-N-methyl-6-(3-{[(3R)-pyrrolidin-3-ylamino]carbonyl}phenyl)pyrazine-2-carboxamide] | 1 to 10 µM |
| CNC(=O)c1nc(-c2cccc(C(=O)N[C@@H]3CCN(Cc4cccc(OC)c4)C3)c2)cnc1NCc1cccc(OC)c1 [Example 361, N-methyl-3-({[3-(methyloxy)phenyl]methyl}amino)-6-(3-{[((3R)-1-{[3-(methyloxy)phenyl]methyl}pyrrolidin-3-yl)amino]carbonyl}phenyl)pyrazine-2-carboxamide] | 0.05 to 1 µM |
| CNC(=O)c1nc(-c2cccc(C(=O)N[C@@H]3CCN(Cc4ccccc4)C3)c2)cnc1NCc1ccccc1 [Example 363, N-methyl-3-[(phenylmethyl)amino]-6-[3-({[(3R)-1-(phenylmethyl)pyrrolidin-3-yl]amino}carbonyl)phenyl]pyrazine-2-carboxamide] | 0.05 to 1 µM |

Next, values leading:

| IC50 | Structure (SMILES) |
| --- | --- |
| 0.05 to 1 µM | CNC(=O)c1nc(-c2cccc(CNC(=O)Cc3ccccc3)c2)cnc1N [Example 330, 3-amino-N-methyl-6-(3-{[(phenylacetyl)amino]methyl}phenyl)pyrazine-2-carboxamide] |
| 0.05 to 1 µM | CNC(=O)c1nc(-c2cccc(CNC(=O)c3cc(C(F)(F)F)ccc3Cl)c2)cnc1N [Example 333, 3-amino-6-{3-[({[2-chloro-5-(trifluoromethyl)phenyl]carbonyl}amino)methyl]phenyl}-N-methylpyrazine-2-carboxamide] |
| 0.05 to 1 µM | CNC(=O)c1nc(-c2cccc(CNC(=O)c3ncccc3O)c2)cnc1N [Example 335, 3-amino-6-[3-({[(3-hydroxypyridin-2-yl)carbonyl]amino}methyl)phenyl]-N-methylpyrazine-2-carboxamide] |
| 0.05 to 1 µM | CNC(=O)c1nc(-c2cccc(CNC(=O)Cc3c[nH]c4ccccc34)c2)cnc1N [Example 336, 3-amino-6-(3-{[(1H-indol-3-ylacetyl)amino]methyl}phenyl)-N-methylpyrazine-2-carboxamide] |
| 0.05 to 1 µM | CNC(=O)c1nc(-c2cccc(C(=O)NCc3cccc(OCCN4CCOCC4)c3)c2)cnc1N [Example 342, 3-amino-N-methyl-6-(3-{[({3-[(2-morpholin-4-ylethyl)oxy]phenyl}methyl)amino]carbonyl}phenyl)pyrazine-2-carboxamide] |
| 0.05 to 1 µM | CNC(=O)c1nc(-c2cccc(C(=O)NCc3ccc(N4CCOCC4)cc3)c2)cnc1N [Example 343] |
| 1 to 10 µM | CNC(=O)c1nc(-c2cccc(C(=O)NCc3cccc(N4CCOCC4)c3)c2)cnc1N [Example 344, 3-amino-N-methyl-6-[3-({[(3-morpholin-4-ylphenyl)methyl]amino}carbonyl)phenyl]pyrazine-2-carboxamide] |
| 0.05 to 1 µM | CNC(=O)c1nc(-c2cccc(C(=O)NCc3ccc(C(C)C)cc3)c2)cnc1N [Example 345, 3-amino-N-methyl-6-{3-[({[4-(1-methylethyl)phenyl]methyl}amino)carbonyl]phenyl}pyrazine-2-carboxamide] |
| 0.05 to 1 µM | CNC(=O)c1nc(-c2cccc(CNC(=O)COc3ccc(C(C)C)cc3)c2)cnc1N [Example 346, 3-amino-N-methyl-6-(3-{[({[4-(1-methylethyl)phenyl]oxy}acetyl)amino]methyl}phenyl)pyrazine-2-carboxamide] |
| 0.05 to 1 µM | CNC(=O)c1nc(-c2cccc(CNC(=O)CSc3ccc(N)cc3)c2)cnc1N [Example 347, 3-amino-6-{3-[({[(4-aminophenyl)thio]acetyl}amino)methyl]phenyl}-N-methylpyrazine-2-carboxamide] |
| 0.05 to 1 µM | CNC(=O)c1nc(-c2cncc(C(=O)NCc3ccccc3)c2)cnc1N [Example 349, 3-amino-N-methyl-6-(5-{[(phenylmethyl)amino]carbonyl}pyridin-3-yl)pyrazine-2-carboxamide] |
| 0.05 to 1 µM | CNC(=O)c1nc(-c2cccc(CNC(=O)C3CCN(c4ncc(C(F)(F)F)cn4)CC3)c2)cnc1N [Example 354, 3-amino-N-methyl-6-(3-{[({1-[5-(trifluoromethyl)pyrimidin-2-yl]piperidin-4-yl}carbonyl)amino]methyl}phenyl)pyrazine-2-carboxamide] |
| 0.05 to 1 µM | CNC(=O)c1nc(-c2cccc(C(=O)NCc3ccccc3N3CCCCC3)c2)cnc1N [Example 355, 3-amino-N-methyl-6-[3-({[(2-piperidin-1-ylphenyl)methyl]amino}carbonyl)phenyl]pyrazine-2-carboxamide] |
| 0.05 to 1 µM | CNC(=O)c1nc(-c2cccc(C(=O)N[C@@H]3CCN(Cc4ccc(Cl)cc4)C3)c2)cnc1NCc1ccc(Cl)cc1 [Example 359, 3-{[(4-chlorophenyl)methyl]amino}-6-{3-[({(3R)-1-[(4-chlorophenyl)methyl]pyrrolidin-3-yl}amino)carbonyl]phenyl}-N-methylpyrazine-2-carboxamide] |
| 0.05 to 1 µM | CNC(=O)c1nc(-c2cccc(C(=O)N[C@@H]3CCN(Cc4ccc(Cl)cc4Cl)C3)c2)cnc1N [Example 360, 3-amino-6-{3-[({(3R)-1-[(2,4-dichlorophenyl)methyl]pyrrolidin-3-yl}amino)carbonyl]phenyl}-N-methylpyrazine-2-carboxamide] |
| 0.05 to 1 µM | CNC(=O)c1nc(-c2cccc(C(=O)N[C@@H]3CCN(Cc4c(Cl)cccc4Cl)C3)c2)cnc1N [Example 362, 3-amino-6-{3-[({(3R)-1-[(2,6-dichlorophenyl)methyl]pyrrolidin-3-yl}amino)carbonyl]phenyl}-N-methylpyrazine-2-carboxamide] |
